Reference: ChEMBL document CHEMBL5308541, “MAIP: An Open-Source Tool to Enrich High-Throughput Screening Output and Identify Novel, Druglike Molecules with Antimalarial Activity” (ACS Med Chem Lett, 2023)

Legend:
[1] = tested on: Plasmodium falciparum; assay: Hit confirmation in dose-response curve in NF54 nanoGlo assay, at 12h; type: functional, organism-based, Erythrocyte; design: timepoint 12 hour; settings: Plasmodium falciparum, NF54, Erythrocyte, 12 h
[2] = tested on: Plasmodium falciparum; assay: Hit confirmation in dose-response curve in NF54 nanoGlo assay, at 72h; type: functional, organism-based, Erythrocyte; design: timepoint 72 hour; settings: Plasmodium falciparum, NF54, Erythrocyte, 72 h
[3] = tested on: Plasmodium falciparum; assay: Hit confirmation in dose-response curve in Dd2 pLDH assay, at 72h; type: functional, organism-based, Erythrocyte; design: timepoint 72 hour; settings: Plasmodium falciparum, Dd2, Erythrocyte, 72 h
[4] = Hit confirmation in dose-response curve in HepG2 cytotoxicity assay, at 72h; type: toxicity, cell-based, Homo sapiens; design: timepoint 72 hour; settings: human, HepG2 cells
[5] = tested on: Plasmodium falciparum; assay: Hit confirmation in dose-response curve in NF54 pLDH assay, at 72h; type: functional, organism-based, Erythrocyte; design: timepoint 72 hour; settings: Plasmodium falciparum, NF54, Erythrocyte, 72 h

IC50 [1] [µM] | IC50 [2] [µM] | IC50 [3] [µM] | IC50 [5] [µM] | Structure (SMILES) | IC50 at 72 h [4] [µM]
1.91 | 1.35 | 1.2 | 1.35 | CN1CCN(CC2CCN(c3ccnc4ccccc34)CC2)CC1 | > 10
0.933 | 0.575 | 0.525 | 0.562 | CCOc1cc2nccc(N3C[C@H]4CN(C)C[C@H]4C3)c2cc1OCC | > 10
> 10 | 2.95 | 3.47 | 1.26 | CN(C)C1(CNc2nc(C(F)(F)F)nc3cc4c(cc23)OCO4)CCCCCC1 | > 10
3.02 | 0.912 | 1.1 | 1.1 | Cc1cc(N2CCC(NC3CCCC3Cc3ccc(F)cc3)CC2)nc(N)n1 (stereo not given) | 4.68
4.17 | 2.19 | 4.07 | 6.92 | Cc1cc(NC[C@H](O)COc2ccc(F)cc2)nc2ccccc12 | > 10
7.41 | 4.07 | 4.37 | 4.17 | CN(Cc1cn(CC(N)=O)c2ccccc12)CC1CCN(CCc2ccc(F)cc2)CC1 | > 10
2.88 | 1.15 | 1.29 | 1.41 | Cc1ccccc1-c1cccc(N2CCC(NCC3CCNCC3)CC2)c1 | 5.5
8.51 | 4.07 | 6.46 | 5.13 | O=C(CCc1nnc(-c2ccc(-c3ccccc3)cc2)o1)NC[C@@H]1CCCN2CCCC[C@H]12 | > 10
3.55 | 1.95 | 2 | 2.45 | CCOc1ccc2nc(CN(CC)CC3CCN(C4CCN(C)CC4)CC3)ccc2c1 | > 10
7.76 | 3.31 | 3.24 | 3.8 | NC(=O)[C@]1(O)CCN(c2ccnc3ccc(Oc4ccccc4)cc23)C1 | > 10
> 10 | 4.79 | 4.68 | 5.89 | COc1ccnc(NCCCc2nc(-c3ccncc3)cs2)n1 | > 10
> 10 | 2.4 | 3.47 | 3.47 | CCNc1cc(C)nc(NCCNC(=O)Nc2cc(F)cc(F)c2)n1 | > 10
3.09 | 0.603 | 0.955 | 1.29 | COC(=O)c1cn(CCNc2ccnc3cc(Cl)ccc23)cc2c(O)nnc1-2 | > 10
2.75 | 6.92 | > 10 | > 10 | FC(F)(F)c1ccc(-c2c(-c3ccccc3)ncn2Cc2ncn[nH]2)cc1 | > 10
0.234 | 0.162 | 0.135 | 0.166 | COCCN1CCC[C@@]2(CCN(c3ccnc4cc(Cl)ccc34)C2)C1 | > 10
> 10 | 7.94 | 8.51 | > 10 | CC(C)c1ccc(-c2noc(CCN3CCN(CCCN(C)C)CC3)n2)cc1 | > 10
> 10 | 2.82 | 6.46 | > 10 | CNc1nc(C)c(-c2ccnc(Nc3cccc(S(C)(=O)=O)c3)n2)s1 | 0.78
3.09 | 1.82 | 3.24 | 2.19 | NCC1(O)CCN(c2ccnc3cc(F)c(Cl)cc23)CC1 | > 10
7.41 | 3.89 | 3.39 | 3.89 | Cc1cc(C)c(CN2CCN(C)CC2)cc1CNCCCn1ccnc1C | > 10

IC50 [1] [µM] | IC50 [2] [µM] | IC50 [3] [µM] | IC50 [5] [µM] | Structure (SMILES) | IC50 at 72 h [4] [µM]
9.33 | 4.27 | 3.89 | 5.89 | CN1CCC(N2CCC(NC(=O)c3ccc(S(=O)(=O)N(C)C4CCCCC4)cc3)CC2)CC1 | > 10
2.04 | 1.17 | 1.17 | 1.7 | COCCCN1CCC(Nc2ncnc3cc(C)c(C)cc23)CC1 | > 10
7.76 | 3.02 | 3.89 | 3.98 | O[C@H](COc1ccccc1CNCc1cc(-c2ccccc2)[nH]n1)CN1CCCCC1 | > 10
0.776 | 0.513 | 0.955 | 0.977 | CCc1oc2ccccc2c1CNC[C@H](O)c1ccc(Cl)cc1 | > 10
> 10 | 7.24 | > 10 | > 10 | Cc1ccc2c(-c3ccccc3CN3CCNCC3)cccc2n1 | > 10
> 10 | 4.57 | 3.55 | 3.72 | Cc1nc2ccc(CNC3CCN(c4ccc(F)c(F)c4)CC3)cc2[nH]1 | > 10
2.95 | 5.01 | > 10 | > 10 | CCOc1cccc(N2CCN(C(=O)c3cc(-c4ccc(F)cc4)[nH]n3)CC2)n1 | > 10
4.68 | 1.78 | 2.69 | 2.69 | N#Cc1ccc(N2C[C@H](COCC3CC3)C3(CCN(Cc4cccc(O)c4)CC3)C2)cc1C(F)(F)F | > 10
7.08 | 3.63 | 3.8 | 4.37 | CCN1CCC[C@H](Nc2cccc(-n3ccnc3)n2)C1 | > 10
1.1 | 0.55 | 0.437 | 0.437 | CN(CCCn1ccnc1)c1ccnc2cc(Br)ccc12 | > 10
> 10 | 3.8 | 9.33 | > 10 | Cc1ccc(-c2nnc(Nc3ccccc3)c3ccccc23)cc1CN1C(=O)c2ccccc2C1=O | > 10
5.62 | 3.09 | 4.07 | 4.57 | COCCN1CC[C@H](CNC2CCN(c3ncc4ccc(F)cc4n3)CC2)C1 | > 10
> 10 | 7.08 | 7.41 | 9.77 | CN([C@@H](c1ccccc1)c1ccccc1Br)S(=O)(=O)c1c[nH]c2ncccc12 | > 10
6.92 | 4.07 | 5.62 | 6.17 | CN1CCN(CCOc2ccccc2CN(C)Cc2cc3cc(F)ccc3[nH]2)CC1 | 10.2
4.9 | 2.51 | 7.08 | 7.24 | COc1ccc2cc(NC(=O)c3cc(-c4c(C)nn(C)c4C)[nH]n3)cnc2c1 | > 10
9.77 | 5.62 | 5.75 | 6.31 | CCc1ccc2ncnc(NCCCN3CCN(CCO)CC3)c2c1 | > 10
5.13 | 2.75 | 3.8 | 5.13 | O[C@@]1(c2c[nH]nn2)CCN(c2ccnc3cc(Cl)ccc23)C1 | > 10
> 10 | 3.98 | 4.47 | 1.29 | O=C(NCc1cccc(-c2cccnc2)c1)N[C@H]1CCN(C2CCCCC2)C1 | > 10

Structure (SMILES) | IC50 [1] [µM] | IC50 [2] [µM] | IC50 [3] [µM] | IC50 [5] [µM] | IC50 at 72 h [4] [µM]
O[C@@H](CNCc1ccc2c(c1)CCO2)c1ccc(F)c(F)c1 | 5.62 | 2.29 | 3.72 | 8.32 | > 10
